One assay concerns the target PARG (Homo sapiens, UniProt Q86W56). The assay can be described thus: Biochemical assay (PARG, TFMU-ADPr substrate).
A further assay relates to HCC1806. As to the kind of experiment: Cell viability assay (CellTiter-Glo). The class given is cell-based, Human. As to conditions: HCC1806, 7 days, CellTiter-Glo, read-out: IC50 (nM) in cell viability assay. (In general: ATP-based viability assays read luminescence as a measure of living cells.)
[1] abbreviates: 4 nM PARG, 66.2 uM TFMU-ADPr, 3 min at room temperature.

Like-named read-outs stand apart in the source and are kept apart here.

Sequence of PARG (Q86W56 whole entry): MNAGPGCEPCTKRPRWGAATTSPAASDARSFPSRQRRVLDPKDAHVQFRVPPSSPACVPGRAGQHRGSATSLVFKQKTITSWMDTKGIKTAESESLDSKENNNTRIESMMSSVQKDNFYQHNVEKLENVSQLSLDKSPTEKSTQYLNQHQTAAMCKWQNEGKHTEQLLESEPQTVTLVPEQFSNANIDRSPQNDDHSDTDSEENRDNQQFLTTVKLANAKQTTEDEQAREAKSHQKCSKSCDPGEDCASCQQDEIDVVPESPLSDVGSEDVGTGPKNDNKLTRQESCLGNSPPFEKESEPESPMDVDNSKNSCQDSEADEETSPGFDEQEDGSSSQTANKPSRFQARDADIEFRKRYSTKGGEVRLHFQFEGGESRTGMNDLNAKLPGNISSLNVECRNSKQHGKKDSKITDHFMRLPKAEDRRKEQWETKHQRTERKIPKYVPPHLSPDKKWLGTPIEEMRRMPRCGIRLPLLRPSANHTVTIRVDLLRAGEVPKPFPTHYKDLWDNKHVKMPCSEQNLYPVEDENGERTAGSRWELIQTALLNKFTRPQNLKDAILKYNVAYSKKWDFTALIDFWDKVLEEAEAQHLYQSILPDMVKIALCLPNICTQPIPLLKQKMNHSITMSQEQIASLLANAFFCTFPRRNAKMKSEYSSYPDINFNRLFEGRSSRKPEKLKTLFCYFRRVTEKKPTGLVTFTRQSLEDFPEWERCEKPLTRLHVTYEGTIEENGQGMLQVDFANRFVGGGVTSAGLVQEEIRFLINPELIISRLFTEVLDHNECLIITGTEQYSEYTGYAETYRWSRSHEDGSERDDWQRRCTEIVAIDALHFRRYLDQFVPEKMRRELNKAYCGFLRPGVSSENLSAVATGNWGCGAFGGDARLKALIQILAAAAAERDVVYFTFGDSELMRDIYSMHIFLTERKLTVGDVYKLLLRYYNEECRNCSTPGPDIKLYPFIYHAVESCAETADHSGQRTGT

Take `C[C@H]1CN(c2cc(S(=O)(=O)NC3(C)COC3)cn3c(-c4nnc(C(F)(F)F)s4)nc(Cl)c23)C[C@H](C)N1` [Example 125, 1-chloro-8-((3S,5S)-3,5-dimethylpiperazin-1-yl)-N-(3-methyloxetan-3-yl)-3-(5-(trifluoromethyl)-1,3,4-thiadiazol-2-yl)imidazo[1,5-a]pyridine-6-sulfonamide]: the IC50 is 31.2 nM against PARG (PARG, TFMU-ADPr substrate) and 518 nM in the assay with HCC1806 (Homo sapiens, HCC1806, 168 h).

For `COC1(C(=O)N2CCN(c3cc(S(=O)(=O)NC4CC4)cn4c(-c5nnc(C(F)(F)F)s5)ncc34)CC2)CC1` [Example 194, N-cyclopropyl-8-(4-(1-methoxycyclopropane-1-carbonyl)piperazin-1-yl)-3-(5-(trifluoromethyl)-1,3,4-thiadiazol-2-yl)imidazo[1,5-a]pyridine-6-sulfonamide], the IC50 was 3.21 nM against PARG (PARG, TFMU-ADPr substrate) and 84.8 nM in the assay with HCC1806 (Homo sapiens, HCC1806, 168 h).

As to `CC1(NS(=O)(=O)c2cc(C3=CCN(S(C)(=O)=O)CC3)c3cnc(-c4nnc(C(F)(F)F)s4)n3c2)CC1` [Example 377, N-(1-methylcyclopropyl)-8-(1-(methylsulfonyl)-1,2,3,6-tetrahydropyridin-4-yl)-3-(5-(trifluoromethyl)-1,3,4-thiadiazol-2-yl)imidazo[1,5-a]pyridine-6-sulfonamide], the IC50 on PARG (PARG, TFMU-ADPr substrate) amounted to 1.41 nM; with HCC1806 (Homo sapiens, HCC1806, 168 h), 60 nM.

Take `O=C(C1CCN(c2cc(S(=O)(=O)NC3CC3)cn3c(-c4nnc(C(F)(F)F)s4)ncc23)CC1)N1CCC1` [Example 219, 8-(4-(azetidine-1-carbonyl)piperidin-1-yl)-N-cyclopropyl-3-(5-(trifluoromethyl)-1,3,4-thiadiazol-2-yl)imidazo[1,5-a]pyridine-6-sulfonamide]: the IC50 against PARG (PARG, TFMU-ADPr substrate) came out at 100 nM; with HCC1806 (Homo sapiens, HCC1806, 168 h) it was 4610 nM.

Take `N#CC1(NS(=O)(=O)c2cc(N3CCN(C(=O)C4(F)CNC4)CC3)c3cnc(-c4nnc(C(F)(F)F)s4)n3c2)CC1` [Example 278, N-(1-cyanocyclopropyl)-8-(4-(3-fluoroazetidine-3-carbonyl)piperazin-1-yl)-3-(5-(trifluoromethyl)-1,3,4-thiadiazol-2-yl)imidazo[1,5-a]pyridine-6-sulfonamide]: the IC50 against PARG (PARG, TFMU-ADPr substrate) stood at 40.7 nM; in the assay with HCC1806 (Homo sapiens, HCC1806, 168 h) it was 1980 nM.

With `C[C@H]1CN(c2cc(S(=O)(=O)NC3(C)COC3)cn3c(-c4nnc(C(F)F)s4)ncc23)C[C@H](CN(C)C)O1` [Example 398, 3-(5-(difluoromethyl)-1,3,4-thiadiazol-2-yl)-8-((2S,6S)-2-((dimethylamino)methyl)-6-methylmorpholino)-N-(3-methyloxetan-3-yl)imidazo[1,5-a]pyridine-6-sulfonamide], the IC50 against PARG (PARG, TFMU-ADPr substrate) turned out to be 27.5 nM; in the assay on HCC1806 (Homo sapiens, HCC1806, 168 h), 992 nM.

Take `N#CC1(NS(=O)(=O)c2cc(N3CCN(C(=O)[C@H]4CCCO4)CC3)c3cnc(-c4nnc(C(F)(F)F)s4)n3c2)CC1` [Example 303, (R)-N-(1-cyanocyclopropyl)-8-(4-(tetrahydrofuran-2-carbonyl)piperazin-1-yl)-3-(5-(trifluoromethyl)-1,3,4-thiadiazol-2-yl)imidazo[1,5-a]pyridine-6-sulfonamide]: the IC50 worked out at 20.9 nM against PARG (PARG, TFMU-ADPr substrate) and 435 nM in the assay on HCC1806 (Homo sapiens, HCC1806, 168 h).

On to `N#CC1(NS(=O)(=O)c2cc(N3CCN(C(=O)C4C5COCC54)CC3)c3cnc(-c4nnc(C(F)(F)F)s4)n3c2)CC1` (centres unmarked) [Example 297, 8-(4-(3-oxabicyclo[3.1.0]hexane-6-carbonyl)piperazin-1-yl)-N-(1-cyanocyclopropyl)-3-(5-(trifluoromethyl)-1,3,4-thiadiazol-2-yl)imidazo[1,5-a]pyridine-6-sulfonamide], for which the IC50 at PARG (PARG, TFMU-ADPr substrate) turned out to be 55 nM; in the assay with HCC1806 (Homo sapiens, HCC1806, 168 h), 362 nM.

`CC(C)C(=O)N1CCN(c2cc(S(=O)(=O)NC3(C)CN(C)C3)cn3c(-c4nnc(C(F)F)s4)ncc23)CC1` [Example 51, 3-(5-(difluoromethyl)-1,3,4-thiadiazol-2-yl)-N-(1,3-dimethylazetidin-3-yl)-8-(4-isobutyrylpiperazin-1-yl)imidazo[1,5-a]pyridine-6-sulfonamide]: the IC50 at PARG (setting [1]) was greater than 1000 nM; with HCC1806 (Homo sapiens, HCC1806, 168 h), greater than 30000 nM.

As for `CC1(NS(=O)(=O)c2cc(N3CCN(C(=O)C4(C)CNC4)CC3)c3cnc(-c4nnc(C(F)(F)F)s4)n3c2)CC1` [Example 313, 8-(4-(3-methylazetidine-3-carbonyl)piperazin-1-yl)-N-(1-methylcyclopropyl)-3-(5-(trifluoromethyl)-1,3,4-thiadiazol-2-yl)imidazo[1,5-a]pyridine-6-sulfonamide], the IC50 on PARG (PARG, TFMU-ADPr substrate) came to 1.64 nM; with HCC1806 (Homo sapiens, HCC1806, 168 h) it was 2050 nM.

On to `CC(C)C(=O)N1CCN(c2cc(S(=O)(=O)NC34CC(F)(C3)C4)cn3c(-c4nnc(C(F)F)s4)ncc23)CC1` [Example 59, 3-(5-(difluoromethyl)-1,3,4-thiadiazol-2-yl)-N-(3-fluorobicyclo[1.1.1]pentan-1-yl)-8-(4-isobutyrylpiperazin-1-yl)imidazo[1,5-a]pyridine-6-sulfonamide], for which the IC50 against PARG (setting [1]) was greater than 1000 nM; in the assay with HCC1806 (Homo sapiens, HCC1806, 168 h), greater than 30000 nM.

Take `N#CC1(NS(=O)(=O)c2cc(N3CCN(c4ccccn4)CC3)c3cnc(-c4nnc(C(F)(F)F)s4)n3c2)CC1` [Example 244, N-(1-cyanocyclopropyl)-8-(4-(pyridin-2-yl)piperazin-1-yl)-3-(5-(trifluoromethyl)-1,3,4-thiadiazol-2-yl)imidazo[1,5-a]pyridine-6-sulfonamide]: the IC50 against PARG (PARG, TFMU-ADPr substrate) is 75.9 nM; in the assay with HCC1806 (Homo sapiens, HCC1806, 168 h), 9000 nM.

`CN1CC(F)(F)C[C@@H]1C(=O)N1CCN(c2cc(S(=O)(=O)NC3(C)CC3)cn3c(-c4nnc(C(F)(F)F)s4)ncc23)CC1` [Example 353, (R)-8-(4-(4,4-difluoro-1-methylpyrrolidine-2-carbonyl)piperazin-1-yl)-N-(1-methylcyclopropyl)-3-(5-(trifluoromethyl)-1,3,4-thiadiazol-2-yl)imidazo[1,5-a]pyridine-6-sulfonamide]: the IC50 is 12.6 nM on PARG (PARG, TFMU-ADPr substrate) and 434 nM in the assay on HCC1806 (Homo sapiens, HCC1806, 168 h).

For the compound `N#CC1(NS(=O)(=O)c2cc(N3CCN(C(=O)[C@@H]4C[C@@H](O)CN4)CC3)c3cnc(-c4nnc(C(F)(F)F)s4)n3c2)CC1` [Example 279, N-(1-cyanocyclopropyl)-8-(4-((2S,4R)-4-hydroxypyrrolidine-2-carbonyl)piperazin-1-yl)-3-(5-(trifluoromethyl)-1,3,4-thiadiazol-2-yl)imidazo[1,5-a]pyridine-6-sulfonamide], the IC50 against PARG (PARG, TFMU-ADPr substrate) was 95.5 nM; in the assay on HCC1806 (Homo sapiens, HCC1806, 168 h), 29900 nM.

Regarding `CN(C)CCN(C)C(=O)N1CCN(c2cc(S(=O)(=O)NC3(C)COC3)cn3c(-c4nnc(C(F)(F)F)s4)ncc23)CC1` [Example 185, N-(2-(dimethylamino)ethyl)-N-methyl-4-(6-(N-(3-methyloxetan-3-yl)sulfamoyl)-3-(5-(trifluoromethyl)-1,3,4-thiadiazol-2-yl)imidazo[1,5-a]pyridin-8-yl)piperazine-1-carboxamide], the IC50 is 4.58 nM against PARG (PARG, TFMU-ADPr substrate) and 797 nM in the assay with HCC1806 (Homo sapiens, HCC1806, 168 h).

Consider `N#CC1(NS(=O)(=O)c2cc(N3CCN(C(=O)C4CCO4)CC3)c3cnc(-c4nnc(C(F)(F)F)s4)n3c2)CC1` (centres unmarked) [Example 300, N-(1-cyanocyclopropyl)-8-(4-(oxetane-2-carbonyl)piperazin-1-yl)-3-(5-(trifluoromethyl)-1,3,4-thiadiazol-2-yl)imidazo[1,5-a]pyridine-6-sulfonamide], for which the IC50 turned out to be 31.6 nM against PARG (PARG, TFMU-ADPr substrate) and 403 nM with HCC1806.

In the case of `CC(C)C(=O)N1CCN(c2cc(S(=O)(=O)NC3(CF)COC3)cn3c(-c4nnc(C(F)F)s4)nnc23)CC1` [Example 106, 3-(5-(difluoromethyl)-1,3,4-thiadiazol-2-yl)-N-(3-(fluoromethyl)oxetan-3-yl)-8-(4-isobutyrylpiperazin-1-yl)-[1,2,4]triazolo[4,3-a]pyridine-6-sulfonamide], the IC50 on PARG (setting [1]) is less than 100 nM; against PARG (PARG, TFMU-ADPr substrate) it was 28.2 nM; in the assay on HCC1806, 5000 nM; with HCC1806 (Homo sapiens, HCC1806, 168 h) it was 5000 to 30000 nM.

Turning to `Cc1ncn(CC(=O)N2CCN(c3cc(S(=O)(=O)NC4(C)CC4)cn4c(-c5nnc(C(F)(F)F)s5)ncc34)CC2)n1` [Example 334, 8-(4-(2-(3-methyl-1H-1,2,4-triazol-1-yl)acetyl)piperazin-1-yl)-N-(1-methylcyclopropyl)-3-(5-(trifluoromethyl)-1,3,4-thiadiazol-2-yl)imidazo[1,5-a]pyridine-6-sulfonamide], the IC50 at PARG (PARG, TFMU-ADPr substrate) came to 6.31 nM; in the assay with HCC1806 (Homo sapiens, HCC1806, 168 h), 354 nM.

Turning to `N#CC1(NS(=O)(=O)c2cc(N3CCN(C(=O)C(O)C(F)(F)F)CC3)c3cnc(-c4nnc(C(F)(F)F)s4)n3c2)CC1` (centres unmarked) [Example 231, N-(1-cyanocyclopropyl)-8-(4-(3,3,3-trifluoro-2-hydroxypropanoyl)piperazin-1-yl)-3-(5-(trifluoromethyl)-1,3,4-thiadiazol-2-yl)imidazo[1,5-a]pyridine-6-sulfonamide], the half-maximal inhibitory concentration (IC50) against PARG (PARG, TFMU-ADPr substrate) is 8.32 nM; with HCC1806 (Homo sapiens, HCC1806, 168 h), 500 nM.

Turning to `C[C@@H]1CN(c2cc(S(=O)(=O)NC3(C#N)CC3)cn3c(-c4nnc(C(F)(F)F)s4)ncc23)CCN1C(=O)C1CCO1` (stereo partly drawn) [Example 302, N-(1-cyanocyclopropyl)-8-((3R)-3-methyl-4-(oxetane-2-carbonyl)piperazin-1-yl)-3-(5-(trifluoromethyl)-1,3,4-thiadiazol-2-yl)imidazo[1,5-a]pyridine-6-sulfonamide], the IC50 on PARG (PARG, TFMU-ADPr substrate) is 15.4 nM; in the assay on HCC1806 (Homo sapiens, HCC1806, 168 h) it was 329 nM.

With `N#CC1(NS(=O)(=O)c2cc(N3CCN(C(=O)C(F)F)CC3)c3cnc(-c4nnc(C(F)(F)F)s4)n3c2)CC1` [Example 241, N-(1-cyanocyclopropyl)-8-(4-(2,2-difluoroacetyl)piperazin-1-yl)-3-(5-(trifluoromethyl)-1,3,4-thiadiazol-2-yl)imidazo[1,5-a]pyridine-6-sulfonamide], the IC50 against PARG (PARG, TFMU-ADPr substrate) was determined as 24 nM; with HCC1806 (Homo sapiens, HCC1806, 168 h), 4180 nM.

One may read the IC50 as the concentration needed to halve the response being measured.

Values taken from patent publication US20260258035A1, “FIVE-MEMBERED AND SIX-MEMBERED NITROGEN-CONTAINING COMPOUND, AND INTERMEDIATE, PREPARATION METHOD AND USE THEREOF” (HANGZHOU SYNRX THERAPEUTICS BIOMEDICAL TECHNOLOGY CO., LTD., priority 2022, published 2026).
